# According to patent publication US20230293473A1, “THERAPEUTIC DRUG FOR DISEASE CAUSED BY INTESTINAL IMMUNE DISORDER” (KEIO UNIVERSITY, priority 2020, published 2023):
# Legend:
# HVx mice = test: In vivo administration of bethanechol, GTS-21 or MLA to HVx mice; colonic APC and Treg phenotypes
# Procedure: Bilateral or unilateral (left or right) subdiaphragmatic vagotomy was performed as previously reported (FIGS. 5c and 5d)^52. A midline incision was made to provide wide exposure of the upper abdominal organ in male mice anesthetized with the combination of medetomidine, midazolam, and butorphanol. The bilateral subdiaphragmatic trunks of vagal nerves along the esophagus were exposed and cut. In the sham operation group, these vagal trunks were exposed but not cut. Selective hepatic vagotomy (HVx) was performed as described (FIG. 7)^25. The ventral subdiaphragmatic vagal trunk was exposed as described above under anesthesia. […]
# FIG. 3 The liver-brain-gut axis regulates colonic Treg homeostasis through muscarinic signaling in APC. a-d, WT and mAChR TKO mice were subjected to Sham or HVx. e, WT and mAchR TKO mice were subjected to Sham or HVx and injected additionally treated with bethanechol (BETH; i.p. 300 μg/day) every day. Phenotypes of colonic immune cell were analyzed at day 2 after surgery (n=5/group). a, Frequency of ALDH^+ cells among MHC-II^+ colonic APCs. […] Quantification (right panel). b, Aldh1a1 and Aldh1a2 mRNA expression in colonic APC. c, e, Frequency of Foxp3^+ cells among CD4^+ cells in the colon. d, Frequency of RORγt^+ cells among colonic Foxp3^+ Tregs. […]
# [1] = tested on: hepatic vagal sensory afferents; test: Selective hepatic vagal afferent blockade by perivagal application of capsaicin; colonic Treg and APC analysis; format: in vivo, mice; settings: perivagal capsaicin 10 mg/ml, 30 minutes; day 2
# Procedure: The hepatic branch of the vagal trunk was freed from the surrounding tissues by paraffin paper and then wrapped for 30 minutes with cotton bud soaked with vehicle (Tween 80: olive oil=1:9) alone or 10 mg/ml capsaicin dissolved in the vehicle solution. The cotton string was removed 30 minutes later and the abdominal incision was closed^28. Aldehyde dehydrogenase (ALDH) activity was determined using ALDEFLUOR staining kit according to the manufacturer's protocol. In brief, cells were suspended at a concentration of 10^6 cells/ml in ALDEFLUOR assay buffer containing activated ALDEFLUOR substrate (final concentration of 1.5 μM) with or without the ALDH inhibitor diethylaminobenzaldehyde (DEAB) (final concentration of 15 μM) and incubated at 37° C. for 30 minutes. […] Phenotypic analysis of T cell and APC in colon was performed at day 2 after application of capsaicin (c, d, n=16/group; e, f, n=8/group). a, b, Representative fluorescence images of TRPV1 (red) and DAPI (blue) in NG (a) and Th4-DRG (b). […] Quantification (right panel). d, Frequency of RORγt^+ cells among colonic Foxp3^+ Tregs. […] TRPV1^+ nerves in spinal cord (Th4-7 and Th13) and colonic immune cells were analyzed at day 7 after administration. g, Fluorescent immunohistochemistry of TRPV1^+ neuron in spinal cord (bar: 200 μm). […]
# [2] = tested on: common hepatic branch of the vagus nerve; test: pERK immunostaining in nodose ganglion after capsaicin deafferentation of the common hepatic branch of the vagus nerve; format: in vivo, mice
# Procedure: The hepatic branch of the vagal trunk was freed from the surrounding tissues by paraffin paper and then wrapped for 30 minutes with cotton bud soaked with vehicle (Tween 80: olive oil=1:9) alone or 10 mg/ml capsaicin dissolved in the vehicle solution. The cotton string was removed 30 minutes later and the abdominal incision was closed^28. pEKR1/2 and c-Fos expression were analyzed immunohistochemically as reported 1. DSS-treated mice were transcardially perfused with PBS including 4% paraformaldehyde and 0.2% picric acid under anesthesia. The nodose ganglions and brains were collected, post-fixed in the same fixative for 2 hours to overnight at 4° C. and then incubated in phosphate buffer containing 30% sucrose for 48 hours. Longitudinal sections (8 μm) of NGs were cut with 48 μm intervals using a precision cryostat (Leica Microsystems, IL). Coronal sections (40 μm) of hindbrain were cut with 120 μm intervals using a freezing microtome. Rabbit polyclonal antibody to pERK1/2 (1/500) and Alexa 488-conjugated goat anti-rabbit IgG (1/500) were used. Fluorescence images were acquired with BX50 microscope and DP50 digital camera (Olympus). […] Neurons immunoreactive to pERK1/2 and c-Fos in medial NTS were counted. […] Representative fluorescence images of Alexa Fluor 488^+ neuron (green) and DAPI (blue) in NG at 1 week after injection of WGA in liver (c) and quantification (d). […]
# colonic APCs = test: In vitro Treg induction assay: naive CD4+ cells with colonic APCs in the presence of muscarine; format: cell-based; settings: colonic APCs from WT mice precultured with muscarine
# Procedure: Naive CD4^+ cells were isolated from spleen in WT mice using naive CD4^+ T cell isolation kit. Naive CD4^+ cells (1×10^5) were cultured in RPMI-1640 medium supplemented with 10% FBS, 2 mM glutamine, 100 U/ml penicillin, 100 µg/ml streptomycin, and 55 μM 2-mercaptoethanol in 96 well plate.
# a, Three-dimensional reconstruction of CX3CR1^+ APC (green) and enteric neurons (purple) in colon in mice. b, Three-dimensional reconstruction of MHCII^+ APC (green), enteric Tuj^+ neurons (purple), and Foxp3^+ Tregs (yellow). c, d, Anatomical diagram (c) and operative field (d) for subdiaphragmatic truncal vagotomy. e, f, Colonic T cell phenotypes in mice after VGx surgery. […] Quantification (n=6/group). […]
compound,measurement,setting,value
CC(C[N+](C)(C)C)OC(N)=O (stereo not drawn) [bethanechol],frequency of pTregs,"HVx mice; HVx WT mice, BETH i.p. 300 μg/day",increased
same,Aldh1a1 and Aldh1a2 expression in colonic APCs,"HVx mice; HVx mice compared with sham-operated mice, BETH i.p. 300 μg/day for 2 days",restored
COc1cc(CNC(=O)CCCC/C=C/C(C)C)ccc1O [capsaicin],aldehyde dehydrogenase activity in APCs,[1],reduced
same,colonic Treg numbers,[1],reduced
same,number of pERK positive cells in the left NG,[2],significantly reduced
C[C@@H]1O[C@H](C[N+](C)(C)C)C[C@H]1O [muscarine],generation of Foxp3+ Tregs,colonic APCs,enhanced
